Measured values as given in patent US20240317708A1, “INHIBITORS OF TRANSGLUTAMINASES” (ZEDIRA GMBH, priority 2021, published 2024).

Columns and labels:
[1] = Log D shake flask method (octanol / PBS pH 7.4, HPLC); type: physicochemical; conditions: octanol/phosphate-buffered saline (PBS); octanol / PBS pH 7.4, shake flask
Procedure: In order to classify the inventive compounds according to their lipophilicity, Log D values (distribution coefficient) were determined by means of the well-established shake flask method, measuring the partition of a compound between an octanol and phosphate-buffered saline (PBS, pH 7.4) by HPLC.

[2] = molecular target: T1, recombinant human transglutaminase 2 (Homo sapiens, UniProt P21980); assay: Transglutaminase assay (dansylcadaverine incorporation into dimethylcasein, DCC-assay); type: biochemical; conditions: recombinant human TG2 10 nM, dansylcadaverine/dimethylcasein, 37° C.
T1 construct: purchased Zedira T022
T1 sequence (P21980 1-687): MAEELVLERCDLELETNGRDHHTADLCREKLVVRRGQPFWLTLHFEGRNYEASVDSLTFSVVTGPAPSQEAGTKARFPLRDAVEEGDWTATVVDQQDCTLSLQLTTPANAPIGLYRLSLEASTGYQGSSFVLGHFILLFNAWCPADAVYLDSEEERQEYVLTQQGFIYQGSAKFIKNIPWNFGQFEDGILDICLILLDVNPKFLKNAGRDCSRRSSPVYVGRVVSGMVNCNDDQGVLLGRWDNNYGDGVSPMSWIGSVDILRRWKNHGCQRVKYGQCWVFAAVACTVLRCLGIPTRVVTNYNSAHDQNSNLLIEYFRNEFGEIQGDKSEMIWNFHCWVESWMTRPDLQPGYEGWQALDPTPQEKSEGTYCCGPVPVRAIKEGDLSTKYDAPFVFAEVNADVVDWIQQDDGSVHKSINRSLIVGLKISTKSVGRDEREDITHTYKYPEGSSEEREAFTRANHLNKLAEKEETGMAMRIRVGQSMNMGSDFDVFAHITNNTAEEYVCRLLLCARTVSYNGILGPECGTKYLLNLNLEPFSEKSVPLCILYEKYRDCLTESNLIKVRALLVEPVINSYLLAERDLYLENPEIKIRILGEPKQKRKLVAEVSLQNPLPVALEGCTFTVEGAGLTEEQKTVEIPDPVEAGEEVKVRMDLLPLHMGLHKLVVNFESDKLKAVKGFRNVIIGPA
Summary of the method: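 IC50 derived from fluorescence slope between 20 and 30 min (λex 330 nm, λem 500 nm, 37 °C), expressed relative to a 2% DMSO control. Reaction: 10 nM recombinant human TG2, 4 μM dimethylcasein, 16.7 μM dansylcadaverine, 10 mM CaCl2 and glutathione, pH 8.0.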

[3] = Caco-2 permeability assay (CacoReady kit); type: in vitro ADME; conditions: human
Summary of the method: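 Apparent permeability coefficients (Papp) were measured across Caco-2 cell barriers using a ready-to-use kit run per the supplier's protocol. Values serve as a predictor of oral/intestinal bioavailability.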

| logD [1] | IC50 [2] | Papp [3] | Compound |
| --- | --- | --- | --- |
| 3 to 5 | < 25 nM | 1 to 10 ×10⁻⁶ cm/s | COC(=O)/C=C/CC[C@H](NC(=O)c1oc2ccccc2c1C)C(=O)Nc1cccn(CC(=O)NC23CC4CC(CC(Br)(C4)C2)C3)c1=O [III-53, (S,E)-methyl 7-(1-(2-(3-bromoadamantan-1-amino)-2-oxoethyl)-2-oxo-1,2-dihydropyridin-3-ylamino)-6-(3-methylbenzofuran-2-carboxamido)-7-oxohept-2-enoate] |
| 1 to 3 | < 25 nM | < 1 ×10⁻⁶ cm/s | COC(=O)/C=C/CC[C@H](NC(=O)c1snnc1C)C(=O)Nc1cccn(CC(=O)N[C@@H]2C[C@@H]3CC[C@H]2C3)c1=O [III-115, (S,E)-methyl 7-(1-(2-((1S,2R,4R)-bicyclo[2.2.1]heptan-2-ylamino)-2-oxoethyl)-2-oxo-1,2-dihydropyridin-3-ylamino)-6-(4-methyl-1,2,3-thiadiazole-5-carboxamido)-7-oxohept-2-enoate] |
| < 1 | 250 to 1500 nM | < 1 ×10⁻⁶ cm/s | CCN(CC)C(=O)/C=C/CC[C@H](NC(=O)[C@@H]1CN2CCN1CC2)C(=O)Nc1cccn(CC(=O)NC23CC(C2)C3)c1=O [III-139, (S,E)-N7-(1-(2-(bicyclo[1.1.1]pentan-1-ylamino)-2-oxoethyl)-2-oxo-1,2-dihydropyridin-3-yl)-6-((S)-1,4-diazabicyclo[2.2.2]octane-2-carboxamido)-N1,N1-diethylhept-2-enediamide] |
| 3 to 5 | < 25 nM | 1 to 10 ×10⁻⁶ cm/s | COC(=O)/C=C/CC[C@H](NC(=O)c1oc2ccccc2c1C)C(=O)Nc1cccn(CC(=O)NC2C3CC4CC2CC(C)(C4)C3)c1=O (stereo partly drawn) [III-42, (S,E)-methyl 7-(1-(2-(5-methyladamantan-2-amino)-2-oxoethyl)-2-oxo-1,2-dihydropyridin-3-ylamino)-6-(3-methylbenzofuran-2-carboxamido)-7-oxohept-2-enoate] |
| 1 to 3 | 250 to 1500 nM | < 1 ×10⁻⁶ cm/s | COC(=O)/C=C/CC[C@H](NC(=O)c1snnc1C=O)C(=O)Nc1cccn(CC(=O)NC2(C(=O)O)C3CC4CC2CC(C(F)(F)F)(C4)C3)c1=O (stereo partly drawn) [III-174, (S,E)-methyl 6-(4-formyl-1,2,3-thiadiazole-5-carboxamido)-7-(1-(2-(2-carboxy-2-amino-5-(trifluoromethyl)adamantane)-2-oxoethyl)-2-oxo-1,2-dihydropyridin-3-ylamino)-7-oxohept-2-enoate] |
| 3 to 5 | < 25 nM | 1 to 10 ×10⁻⁶ cm/s | COC(=O)/C=C/CC[C@H](NC(=O)C1Cc2ccccc2C1)C(=O)Nc1cccn(CC(=O)NC2C3CC4CC(C3)CC2C4)c1=O (stereo partly drawn) [III-12, (S,E)-methyl 6-(2,3-dihydro-1H-indene-2-carboxamido)-7-(1-(2-(2-adamantylamino)-2-oxoethyl)-2-oxo-1,2-dihydropyridin-3-ylamino)-7-oxohept-2-enoate] |
| < 1 | 25 to 250 nM | 1 to 10 ×10⁻⁶ cm/s | CC(C)NC(=O)/C=C/CC[C@H](NC(=O)c1c[nH]c2ccccc12)C(=O)Nc1cccn(CC(=O)NC23CC(C2)C3)c1=O [III-140, (S,E)-N7-(1-(2-(bicyclo[1.1.1]pentan-1-ylamino)-2-oxoethyl)-2-oxo-1,2-dihydropyridin-3-yl)-6-(1H-indole-3-carboxamido)-N1-isopropylhept-2-enediamide] |
| 1 to 3 | 250 to 1500 nM | < 1 ×10⁻⁶ cm/s | COC(=O)/C=C/CC[C@H](NC(=O)c1cc2ccc(N(C)C)cc2o1)C(=O)Nc1cccn(CC(=O)NC23CC(C2)C3)c1=O [III-161, (S,E)-methyl 7-(1-(2-(bicyclo[1.1.1]pentan-1-ylamino)-2-oxoethyl)-2-oxo-1,2-dihydropyridin-3-ylamino)-6-(6-(dimethylamino)benzofuran-2-carboxamido)-7-oxohept-2-enoate] |
| 1 to 3 | < 25 nM | < 1 ×10⁻⁶ cm/s | COC(=O)/C=C/CC[C@H](NC(=O)c1cncn1C)C(=O)Nc1cccn(CC(=O)N[C@@H]2C[C@@H]3CC[C@H]2C3)c1=O [III-58, (S,E)-methyl 7-(1-(2-((1S,2R,4R)-bicyclo[2.2.1]heptan-2-ylamino)-2-oxoethyl)-2-oxo-1,2-dihydropyridin-3-ylamino)-6-(1-methyl-1H-imidazole-5-carboxamido)-7-oxohept-2-enoate] |
| 1 to 3 | 250 to 1500 nM | 1 to 10 ×10⁻⁶ cm/s | O=C(/C=C/CC[C@H](NC(=O)c1nc(Cl)sc1Cl)C(=O)Nc1cccn(CC(=O)NC23CC(C2)C3)c1=O)NCc1ccccc1 [III-154, (S,E)-N1-benzyl-N7-(1-(2-(bicyclo[1.1.1]pentan-1-ylamino)-2-oxoethyl)-2-oxo-1,2-dihydropyridin-3-yl)-6-(2,5-dichlorothiazole-4-carboxamido)hept-2-enediamide] |
| < 1 | 25 to 250 nM | < 1 ×10⁻⁶ cm/s | O=C(/C=C/CC[C@H](NC(=O)c1cc2ccccc2nn1)C(=O)Nc1cccn(CC(=O)NC23CC(C2)C3)c1=O)NC1CC1 [III-145, (S,E)-N7-(1-(2-(bicyclo[1.1.1]pentan-1-ylamino)-2-oxoethyl)-2-oxo-1,2-dihydropyridin-3-yl)-6-(cinnoline-3-carboxamido)-N1-cyclopropylhept-2-enediamide] |

Continued, compound first:

| Compound | logD [1] | IC50 [2] | Papp [3] |
| --- | --- | --- | --- |
| CCCCCNC(=O)/C=C/CC[C@H](NC(=O)c1cn2ccsc2n1)C(=O)Nc1cccn(CC(=O)NC23CC(C2)C3)c1=O [III-143, (S,E)-N7-(1-(2-(bicyclo[1.1.1]pentan-1-ylamino)-2-oxoethyl)-2-oxo-1,2-dihydropyridin-3-yl)-6-(imidazo[2,1-b]thiazole-6-carboxamido)-N1-pentylhept-2-enediamide] | 1 to 3 | 250 to 1500 nM | 1 to 10 ×10⁻⁶ cm/s |
| COC(=O)/C=C/CC[C@H](NC(=O)c1csc(Br)c1)C(=O)Nc1cccn(CC(=O)NC2C3CC4CC(C3)CC2C4)c1=O (stereo partly drawn) [III-17, (S,E)-methyl 6-(5-bromothiophene-3-carboxamido)-7-(1-(2-(2-adamantylamino)-2-oxoethyl)-2-oxo-1,2-dihydropyridin-3-ylamino)-7-oxohept-2-enoate] | 3 to 5 | < 25 nM | < 1 ×10⁻⁶ cm/s |
| COC(=O)/C=C/CC[C@H](NC(=O)c1oc2ccccc2c1C)C(=O)Nc1cccn(CC(=O)N(C)C2C3CC4CC(C3)CC2C4)c1=O (stereo partly drawn) [III-37, (S,E)-methyl 7-(1-(2-(2-adamantyl(methyl)amino)-2-oxoethyl)-2-oxo-1,2-dihydropyridin-3-ylamino)-6-(3-methylbenzofuran-2-carboxamido)-7-oxohept-2-enoate] | 3 to 5 | 25 to 250 nM | 1 to 10 ×10⁻⁶ cm/s |
| COC(=O)/C=C/CC[C@H](NC(=O)c1nn[nH]n1)C(=O)Nc1cccn(CC(=O)NC2C3CC4CC(C3)CC2C4)c1=O (stereo partly drawn) [III-23, (S,E)-methyl 7-(1-(2-(2-adamantylamino)-2-oxoethyl)-2-oxo-1,2-dihydropyridin-3-ylamino)-7-oxo-6-(2H-tetrazole-5-carboxamido)hept-2-enoate] | 1 to 3 | 25 to 250 nM | 1 to 10 ×10⁻⁶ cm/s |
| CC(C)OC(=O)/C=C/CC[C@H](NC(=O)c1cn[nH]n1)C(=O)Nc1cccn(CC(=O)NC23CCC(C2)C3)c1=O [III-158, (S,E)-isopropyl 7-(1-(2-(bicyclo[2.1.1]hexan-1-ylamino)-2-oxoethyl)-2-oxo-1,2-dihydropyridin-3-ylamino)-7-oxo-6-(2H-1,2,3-triazole-4-carboxamido)hept-2-enoate] | < 1 | 250 to 1500 nM | < 1 ×10⁻⁶ cm/s |
| COC(=O)/C=C/CC[C@H](NC(=O)c1cncc(C(=O)O)c1)C(=O)Nc1cccn(CC(=O)NC2C3CC4CC(C3)CC2C4)c1=O (stereo partly drawn) [III-35, (S,E)-5-(1-(1-(2-(2-adamantylamino)-2-oxoethyl)-2-oxo-1,2-dihydropyridin-3-ylamino)-7-methoxy-1,7-dioxohept-5-en-2-ylcarbamoyl)nicotinic acid] | 3 to 5 | < 25 nM | < 1 ×10⁻⁶ cm/s |
| COC(=O)/C=C/CC[C@H](NC(=O)c1nc2ccccc2[nH]1)C(=O)Nc1cccn(CC(=O)NC2C3CC4CC(C3)CC2C4)c1=O (stereo partly drawn) [III-11, (S,E)-methyl 6-(1H-benzo[d]imidazole-2-carboxamido)-7-(1-(2-(2-adamantylamino)-2-oxoethyl)-2-oxo-1,2-dihydropyridin-3-ylamino)-7-oxohept-2-enoate] | 3 to 5 | 25 to 250 nM | < 1 ×10⁻⁶ cm/s |
